The record followed here is PMC12040169 (PLOS Biology, 2025).

The series can be described thus: in vitro. The conditions noted are these: human, hela cells, % viability.

A word on the viability: it is a read-out of living cells in per cent, often relative to untreated cells.

In the case of `O=S(=O)(CC(F)(F)F)N(c1ccccc1)C1CCNCC1` [CBK165093T], the viability at 28.5 h, 10 µM amounted to 92.6%. Same read-out and setting: the figure for `Cc1nn(C)c(Cl)c1CN1CCOC(c2ccccc2)C1` (centres unmarked) [CBK305244] is 83.2%.

Consider `O=C(CCS(=O)(=O)c1ccccc1)Nc1cccnc1N1CCNCC1` [CBK028262T], for which the viability at 28.5 h, 10 µM came to 103%. Still for that read-out and setting: the figure for `CCSc1nc(SCC)c2c3c([nH]c2n1)CCCC3` [CBK019936] is 94.6%; for `CC(=O)Nc1ccccc1-c1nc2ccccc2nc1OCC(=O)c1ccc(Cl)cc1` [CBK266269] it is 93.6%; for `O=C(NC(c1ccc(Cl)cc1)c1cnccn1)C1CCN(C(=O)c2ccccc2)CC1` (centres unmarked) [CBK059634] it is 109%. Turning to `NC(Cc1ccccc1)CN(CC1(c2ccc(Cl)cc2)CC1)C(=O)Nc1ccc2c(c1)OCO2` (centres unmarked) [CBK002342C], the viability at 28.5 h, 10 µM came to 76.1%. On to `O=C(O)CCc1ccc(-c2ccc(F)cc2)n1-c1cc(Cl)ccc1O` [CBK131891], for which the viability at 28.5 h, 10 µM worked out at 92%.

On to `CC(CCCC(C)(C)O)Nc1cc(N2CCN(C)CC2)n2nccc2n1` (centres unmarked) [CBK037103], for which the viability at 28.5 h, 10 µM worked out at 98.2%. Take `CCCC1(C)CCCN(Cc2nnnn2-c2ccc(S(C)(=O)=O)cc2)C1` (centres unmarked) [CBK304133]: the viability at 28.5 h, 10 µM came out at 79.8%. On to `CC1(CCc2ccccc2)NC(=O)N(CC(=O)c2ccc(-c3ccccc3)cc2)C1=O` (centres unmarked) [CBK297114], for which the viability at 28.5 h, 10 µM was 107%.

As for `CCn1cc(-c2cncn2C(CCN(C)C)c2ccccc2)cn1` (centres unmarked) [CBK281741], the viability at 28.5 h, 10 µM was determined as 79.2%. Same read-out and setting: the same measure for `Oc1ccccc1-c1n[nH]c(=S)n1-c1ccc(OC(F)(F)F)cc1` [CBK288384]: 85.9%; for `CC(C)NC(=O)[C@H]1O[C@H](CCN2CCOCC2)CC[C@@H]1O` [CBK288720]: 108%.

In the case of `O=C(CCCOc1ccccc1)N1CCN(c2cccc(Cl)c2)CC1` [CBK304354], the viability at 28.5 h, 10 µM was determined as 107%. For `CC1CCC2(CC1)NC(=O)N(Cc1coc(-c3ccccc3)n1)C2=O` (centres unmarked) [CBK306196], the viability at 28.5 h, 10 µM was 98.3%. Same read-out and setting: the figure for `COc1cccc(NC(=O)CCN2CCN(CCO)CC2)c1` [CBK264207C] is 88.3%. On the same count and under the same terms, the same measure for `Cc1cccc(C)c1NC(=O)CSCC(=O)Nc1ccc2ccccc2c1` [CBK263274]: 94.2%; for `COc1ccc(CNC(=O)c2nc(-c3ccccn3)no2)cc1` [CBK287877]: 90.3%; for `CCn1c2ccccc2c2cc(Nc3cc(-c4ccc(OC(F)(F)F)cc4)ncn3)ccc21` [CBK090842]: 87.3%. Same read-out and setting: the same measure for `Cc1ccc(S(=O)(=O)NCCOc2ccccc2)c(C)c1NS(C)(=O)=O` [CBK268210]: 92.9%; for `Cc1ccc(C2(CN3CCN(CC4CCOC4)CC3)CC2)cc1` (centres unmarked) [CBK282479]: 86.1%. With `COCCNC(=O)C1(O)c2ccccc2NC(=O)N1c1cccc(OC)c1` (centres unmarked) [CBK288589], the viability at 28.5 h, 10 µM stood at 110%. On the same count and under the same terms, the same measure for `CC(=O)Nc1ccc(-c2cncc(NCCCO)n2)cc1` [CBK065598]: 103%. Still for that read-out and setting: the same measure for `CC(C)(C)C1=CC2=NC3(CCC3)C3C[C@](O)(CO)[C@@H](O)[C@@H]3N2O1` (some centres unmarked) [CBK303262]: 91.1%; for `O=C(c1ccco1)N1CCN(C(=O)c2ccco2)CC1` [CBK068272]: 86.4%. Consider `CCc1c(C)nc2c(C(=O)NCc3cc(C)on3)cnn2c1C` [CBK162150], for which the viability at 28.5 h, 10 µM was 82.5%. Still for that read-out and setting: the same measure for `N/C(=N\O)c1ccc(OC(F)(F)F)cc1` [CBK019865]: 97.2%; for `CC1CCCN(c2nc3nc[nH]c(=O)c3s2)C1` (centres unmarked) [CBK288120]: 83.4%. The same measure, in the same setting: the same measure for `COc1cc(C2N3CC4(C)CN2CC(C)(C3)C4=O)ccc1O` (centres unmarked) [CBK261453]: 99.6%; for `O=C(c1ccccc1)N1CCCC(c2nnc(-c3cccs3)o2)C1` (centres unmarked) [CBK283059]: 103%; for `CCCCC1CCC(c2noc(-c3ccc(F)cc3)n2)CC1` (centres unmarked) [CBK027363]: 90.3%.

Take `CC(C)c1ccc(-c2cncc(NCCCN3CCOCC3)n2)cc1` [CBK065196]: the viability at 28.5 h, 10 µM worked out at 97.7%. On the same count and under the same terms, the figure for `FC(F)(F)c1ccccc1/C=N/n1c(S)nnc1COc1ccccc1` [CBK265260] is 99.7%; for `COc1cc(/C=N/NC(=O)C2COc3ccccc3O2)cc([N+](=O)[O-])c1O` (centres unmarked) [CBK261480] it is 89.1%.

In the case of `Cc1cc(-c2nnc(SCCC(=O)Nc3ccccc3)o2)no1` [CBK268737], the viability at 28.5 h, 10 µM was found to be 104%. `Cc1cc2oc(C(=O)Nc3sc4c(c3C(=O)NC3CCS(=O)(=O)C3)CCC(C)C4)c(C)c2cc1C` (centres unmarked) [CBK266351]: the viability at 28.5 h, 10 µM was determined as 92.2%. Consider `Cc1ccc(Oc2cc(-n3nc(C)c(C(N)=O)c3N)ncn2)cc1` [CBK099753], for which the viability at 28.5 h, 10 µM was determined as 95.7%. Turning to `O=C(NCCN1CCOCC1)c1cc(-c2cccc(Br)c2)nc2ccccc12` [CBK263625], the viability at 28.5 h, 10 µM is 90.2%.

Regarding `Cc1nn2c(=O)c(CCC(=O)O)c(C)[nH]c2c1-c1ccccc1` [CBK287011], the viability at 28.5 h, 10 µM was 92.4%. On to `C/C=N\n1c(CO)nnc1CO` [CBK034325], for which the viability at 28.5 h, 10 µM was determined as 86.5%. Consider `Cn1c(=O)n(CC#N)c2ccccc21` [CBK025636], for which the viability at 28.5 h, 10 µM amounted to 96.9%. `O=c1c([N+](=O)[O-])c(O)c2ccccc2n1-c1ccccc1` [CBK115316]: the viability at 28.5 h, 10 µM is 97.5%. As to `CC1CCN(S(=O)(=O)c2ccc(C(=O)N3CCC(C(=O)O)CC3)cc2)CC1` [CBK297097], the viability at 28.5 h, 10 µM stood at 105%. As to `CCOC(=O)c1cnc(Nc2nc3ccccc3o2)nc1CSc1ncccn1` [CBK268885], the viability at 28.5 h, 10 µM was 103%. Still for that read-out and setting: the figure for `COc1nccnc1N1CCN(CCc2c[nH]c3ccccc23)CC1` [CBK084231] is 89.2%; for `O=C(CSc1ncnc2[nH]ncc12)c1ccc(-c2ccccc2)cc1` [CBK300519] it is 88.4%. The same measure, in the same setting: the figure for `Cc1nc2cc(C(=O)N(C)CCN3CCCCC3)ccc2n1C` [CBK281854] is 78.3%; for `CC(C)CNC(=O)c1cc([C@H]2CC[C@H](CNC(=O)c3cnn(C)c3)CC2)nc2ccccc12` [CBK285867] it is 114%. Still for that read-out and setting: the figure for `O=c1[nH]c2ncc(-c3ccsc3)nc2n1CC1CCOCC1` [CBK064293] is 86.3%.

With `CCn1c(CC2CCN(C(=O)CCN3CCCCO3)CC2)nn(C)c1=O` [CBK307217], the viability at 28.5 h, 10 µM worked out at 95.4%. `CC(C)(C)OC(=O)N1CCCC(C(=O)NC(CO)Cc2ccccn2)C1` (centres unmarked) [CBK305458]: the viability at 28.5 h, 10 µM came to 88.4%. As for `CN(C)C(=O)c1ccc(-c2cnc3[nH]c(=O)n(CCCN4CCOCC4)c3n2)cc1` [CBK064828], the viability at 28.5 h, 10 µM came to 108%. For `CC(C)[C@H](CO)Nc1nc(-c2ccccc2)cnc1N` [CBK063933], the viability at 28.5 h, 10 µM was 107%. Still for that read-out and setting: the figure for `Nc1cccc(-c2cn(C[C@H]3CC4CCN3C[C@@H]4C(=O)NCc3cccnc3)nn2)c1` (some centres unmarked) [CBK289088] is 84.3%; for `COCCn1c(=O)[nH]c2ncc(-c3ccsc3)nc21` [CBK064156] it is 108%. On the same count and under the same terms, the figure for `CC(C)(C)OC(=O)N1CCC(Oc2nccc3c2ccn3Cc2ccc(S(C)(=O)=O)cc2)CC1` [CBK132881] is 89.2%; for `O=C(NCc1ccc2c(c1)OCO2)c1ccc2[nH]ccc2c1` [CBK161750] it is 106%. Still for that read-out and setting: the figure for `Cc1ccc(NC(=O)CN(C)C)c(C)n1` [CBK200388] is 99.6%.

For the compound `Fc1ccc(Sc2ccc(C(F)(F)F)cn2)cc1` [CBK115235], the viability at 28.5 h, 10 µM came to 106%. On the same count and under the same terms, the same measure for `C=C[C@H]1C[N@@]2CC[C@H]1C[C@@H]2CNS(=O)(=O)c1cccc(C#N)c1` [CBK288750]: 103%; for `CCOc1ccc(-c2cncc(NCCc3ccncc3)n2)cc1` [CBK065774]: 94.6%; for `CN(C)CCNC(=O)c1cccc(-c2cncc(N3CCN(c4ccncc4)CC3)n2)c1` [CBK065391]: 100%. The same measure, in the same setting: the figure for `CCCNc1cc(C)c(C#N)c2nc3ccccc3n12` [CBK288097] is 94%.

`CCC(=O)c1c(CC)n[nH]c1-c1c(Cl)cccc1Cl` [CBK107819]: the viability at 28.5 h, 10 µM is 96.1%. In the case of `CCCn1cc(NC(=O)NC(C)(CC)CO)ccc1=O` (centres unmarked) [CBK304864], the viability at 28.5 h, 10 µM is 88.7%. The same measure, in the same setting: the same measure for `Cc1cccc(N2NC(=O)/C(=C/c3cccn3-c3ccc(S(N)(=O)=O)cc3)C2=O)c1` [CBK265660]: 93.9%; for `CC(C)(CSc1ccccn1)NS(=O)(=O)c1ccccc1` [CBK268513]: 102%. Same read-out and setting: the figure for `OCc1ccccc1-c1cnc(N2CCOCC2)c2nccn12` [CBK091265] is 110%. The same measure, in the same setting: the same measure for `CCCNC(=O)NC1CC(C)(C)Cc2nc(N3CCOCC3)ncc21` (centres unmarked) [CBK307232]: 85.7%; for `O=C(Cc1ccccc1)N(Cc1ccco1)C1CCN(c2ccc3c(c2)OCCO3)CC1` [CBK286529]: 106%; for `CCn1c(SCC(=O)NC(=O)NC2CCCCC2)nc2ccccc21` [CBK306037]: 93.6%. As to `CC(C)C(=O)N1CC2(CCN(Cc3cc(=O)[nH]c(=O)[nH]3)CC2)c2ccccc21` [CBK144602T], the viability at 28.5 h, 10 µM was found to be 107%.

For the compound `COc1ccc(C(=O)N[C@H]2CCN3C(=O)c4ccc(Cl)cc4NC(=O)[C@@H]3C2)cc1` [CBK289564], the viability at 28.5 h, 10 µM was 84.5%. Same read-out and setting: the same measure for `N#CC(NS(=O)(=O)c1ccc(OC(F)(F)F)cc1)c1ccccc1` (centres unmarked) [CBK043714]: 97.6%; for `CC(C)(CO)CCCn1cncc1-c1cnn(-c2ccc(F)cc2)c1` [CBK281466]: 117%; for `CC(C)CCNC(=O)c1cccc(-n2c(=S)[nH]c3cc(Cl)ccc3c2=O)c1` [CBK294444]: 107%.

Turning to `O=C1c2ccccc2C(=O)c2c1cccc2S(=O)(=O)N1CCN(C(=O)C2CCCO2)CC1` (centres unmarked) [CBK200038], the viability at 28.5 h, 10 µM turned out to be 40.5%.

For the compound `COc1ccc(CCNCc2ccc3c(c2)OCO3)cc1` [CBK074488], the viability at 28.5 h, 10 µM (bulk resorufin, single well) turned out to be 95.7%. Take `CCCCSc1nc(N)cc(N2CCOCC(CN(C)C)C2)n1` (centres unmarked) [CBK306659]: the viability at 28.5 h, 10 µM amounted to 103%.
